Data from ChEMBL document CHEMBL6096738, “Optimization of Single Relaxin B-Chain Peptide Leads to the Identification of R2R01, a Potent, Long-Acting RXFP1 Agonist for Cardiovascular and Renal Diseases” (J Med Chem, 2025).
Starred links: 1 amine or outer side, 2 acyl side, 3 side chain; linkers in the order of their positions; H or OH if unused. Non-standard residues stand in square brackets, D forms with d. Residues, ends and D or L forms follow the SMILES beside them. Groups on a side chain read outwards from the residue. *: point of attachment. X2 = CCCCCCCCCCCCCCCC(=O)N[C@@H](CCC(=O)N[C@@H](CCC(=O)N[C@@H](CCC(=O)NCCCOCCOCCOCCCNC(=O)CCC(=O)NCCCOCCOCCOCCCNC(=O)CCC(=O)NCCCOCCOCCOCCCN*)C(=O)O)C(=O)O)C(=O)O; γGlu = O=C(O)[C@H](CCC(=O)[*:2])N[*:1]; Palmitoyl = CCCCCCCCCCCCCCCC(=O)*; Suc = O=C(CCC(=O)[*:2])[*:1]; αMeK = C[C@](N)(CCCCN)C(=O)O; Nle = CCCC[C@H](N)C(=O)O; AEEA = NCCOCCOCC(=O)O; Aib = CC(C)(N)C(=O)O

Columns and labels:
[1] = Induction of mast cell degranulation in human LAD2 cells assessed as beta-hexosaminidase release by measuring 4-methylumbelliferyl N-acetyl-beta-D-glucosaminide hydrolysis incubated for 30 mins by plate reader analysis; type: toxicity, cell-based; details: probe 4-methylumbelliferyl N-acetyl-beta-D-glucosaminide
Relaxin receptor 1 [2] = target: T1, Relaxin receptor 1 (Homo sapiens, UniProt Q9HBX9); assay: Agonist activity at human RXFP1 expressed in human OVCAR-5 cells assessed as intracellular cAMP accumulation incubated for 30 mins by HTRF assay; type: functional, cell-based
T1 sequence (Q9HBX9 whole entry): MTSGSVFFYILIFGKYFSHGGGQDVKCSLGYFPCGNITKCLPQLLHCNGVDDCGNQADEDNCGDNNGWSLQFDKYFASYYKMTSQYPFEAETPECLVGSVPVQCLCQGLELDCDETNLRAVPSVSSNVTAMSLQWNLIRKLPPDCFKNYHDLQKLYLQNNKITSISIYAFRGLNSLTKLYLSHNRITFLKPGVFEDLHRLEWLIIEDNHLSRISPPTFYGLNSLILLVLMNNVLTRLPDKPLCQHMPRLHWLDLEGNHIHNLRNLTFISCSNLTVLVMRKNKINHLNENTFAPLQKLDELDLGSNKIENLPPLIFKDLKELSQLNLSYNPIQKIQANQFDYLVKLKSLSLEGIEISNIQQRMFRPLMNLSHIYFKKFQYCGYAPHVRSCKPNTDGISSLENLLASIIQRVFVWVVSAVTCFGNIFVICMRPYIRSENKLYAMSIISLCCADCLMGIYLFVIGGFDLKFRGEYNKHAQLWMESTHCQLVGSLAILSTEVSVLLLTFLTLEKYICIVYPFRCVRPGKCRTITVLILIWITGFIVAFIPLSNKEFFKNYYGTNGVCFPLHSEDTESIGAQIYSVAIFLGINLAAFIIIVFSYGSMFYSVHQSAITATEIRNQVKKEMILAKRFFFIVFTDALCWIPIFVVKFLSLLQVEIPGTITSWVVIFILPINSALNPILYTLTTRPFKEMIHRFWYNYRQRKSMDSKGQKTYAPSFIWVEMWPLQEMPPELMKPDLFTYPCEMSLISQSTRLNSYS

[3] = Induction of mast cell degranulation in human LAD2 cells assessed as beta-hexosaminidase release by measuring maximal efficacy of 4-methylumbelliferyl N-acetyl-beta-D-glucosaminide hydrolysis at 100 uM incubated for 30 mins by plate reader analysis relative to control; type: toxicity, cell-based; details: probe 4-methylumbelliferyl N-acetyl-beta-D-glucosaminide
[4] = target: T2, Relaxin receptor 1 (Homo sapiens) (UniProt Q9HBX9); assay: Agonist activity at human RXFP1 expressed in 2%HSA treated human OVCAR-5 cells assessed as intracellular cAMP accumulation by measuring maximal efficacy incubated for 30 mins with 2% HSA pretreated compound by HTRF assay relative to control; type: functional, cell-based; details: filed as agonist
T2 sequence (whole entry): T1 sequence (Q9HBX9 whole entry)

Relaxin receptor 1 [5] = target: T1, Relaxin receptor 1; assay: Agonist activity at human RXFP1 expressed in 2%HSA treated human OVCAR-5 cells assessed as intracellular cAMP accumulation incubated for 30 mins with 2% HSA pretreated compound by HTRF assay; type: functional, cell-based
[6] = target: T2, Relaxin receptor 1 (Homo sapiens); assay: Agonist activity at human RXFP1 expressed in human OVCAR-5 cells assessed as intracellular cAMP accumulation by measuring maximal efficacy incubated for 30 mins by HTRF assay relative to control; type: functional, cell-based; details: filed as agonist
[7] = Induction of mast cell degranulation in human LAD2 cells assessed as beta-hexosaminidase release by measuring maximal efficacy of 4-methylumbelliferyl N-acetyl-beta-D-glucosaminide hydrolysis at 33 uM incubated for 30 mins by plate reader analysis relative to control; type: toxicity, cell-based; details: probe 4-methylumbelliferyl N-acetyl-beta-D-glucosaminide
[8] = Half-life in male Sprague-Dawley rat at 1 mg/kg, iv measured after 198 hrs by LC-HRMS analysis; type: ADME, organism-based; details: in vivo

Row | SMILES | EC50 (Relaxin receptor 1 [2]) [nM] | Emax [4] [%] | EC50 (Relaxin receptor 1 [5]) [nM] | Emax [6] [%] | half-life [8] [h] | EC50 at 30 min [1] [nM] | Emax at 0.5 h, 100 µM [3] [%] | Emax at 0.5 h, 33 µM [7] [%]
1 | CCCCCCCCCCCCCCCC(=O)N[C@H](CCC(=O)N[C@H](CCC(=O)N[C@H](CCC(=O)NCCCOCCOCCOCCCNC(=O)CCC(=O)NCCCOCCOCCOCCCNC(=O)CCC(=O)NCCCOCCOCCOCCCNC(=O)CCC(=O)NCCCC[C@H](NC(=O)[C@H](CO)NC(=O)[C@H](Cc1c[nH]c2ccccc12)NC(=O)[C@@H](NC(=O)[C@H](CO)NC(=O)[C@H](CCC(N)=O)NC(=O)CNC(=O)[C@H](CCC(=O)O)NC(=O)C(C)(C)NC(=O)C(C)(C)NC(=O)[C@@H](NC(=O)[C@H](CCCCNC(C)=O)NC(=O)[C@H](C)NC(=O)[C@H](CCCNC(=N)N)NC(=O)[C@@H](NC(=O)[C@H](CCCCN)NC(=O)[C@H](CCC(=O)O)NC(=O)[C@H](CCCNC(=N)N)NC(=O)CNC(=O)[C@H](CCC(=O)O)NC(=O)[C@H](CC(C)C)NC(C)=O)C(C)C)[C@@H](C)CC)[C@H](C)O)C(=O)N[C@@H](CCCNC(=N)N)C(=O)N[C@@H](CCCCN)C(=O)N[C@@H](CCCCNC(C)=O)C(N)=O)C(=O)O)C(=O)O)C(=O)O | 0.38 | 92 | 90 | 94 | – | 13400 | 24 | –
2 | CCCCCCCCCCCCCCCC(=O)N[C@@H](CCC(=O)N[C@@H](CCC(=O)N[C@@H](CCC(=O)NCCCOCCOCCOCCCNC(=O)CCC(=O)NCCCOCCOCCOCCCNC(=O)CCC(=O)NCCCOCCOCCOCCCNC(=O)CCC(=O)NCCCC[C@H](NC(=O)[C@@H](NC(=O)[C@H](CCCCNC(C)=O)NC(=O)[C@H](C)NC(=O)[C@H](CCCNC(=N)N)NC(=O)[C@@H](NC(=O)[C@H](CCCCN)NC(=O)[C@H](CCC(=O)O)NC(=O)[C@H](CCCNC(=N)N)NC(=O)CNC(=O)[C@H](CCC(=O)O)NC(=O)[C@H](CC(C)C)NC(C)=O)C(C)C)[C@@H](C)CC)C(=O)NC(C)(C)C(=O)N[C@@H](CCC(=O)O)C(=O)NCC(=O)N[C@@H](CCC(N)=O)C(=O)N[C@@H](CO)C(=O)N[C@H](C(=O)N[C@@H](Cc1c[nH]c2ccccc12)C(=O)N[C@@H](CO)C(=O)NC(C)(C)C(=O)N[C@@H](CCCNC(=N)N)C(=O)N[C@@H](CCCCN)C(=O)N[C@@H](CCCCNC(C)=O)C(N)=O)[C@@H](C)O)C(=O)O)C(=O)O)C(=O)O (Ac-LEGREKVRAK(Ac)IK([Suc-X2])[Aib]EGQSTWS[Aib]RKK(Ac)-NH2) | 0.21 | 90 | 80 | 87 | – | 13600 | 11 | –
3 | CCCCCCCCCCCCCCCC(=O)N[C@@H](CCC(=O)N[C@@H](CCC(=O)N[C@@H](CCC(=O)NCCOCCOCC(=O)NCCOCCOCC(=O)NCCOCCOCC(=O)NCCOCCOCC(=O)NCCCC[C@H](NC(=O)[C@H](CCCCNC(C)=O)NC(=O)[C@H](C)NC(=O)[C@H](CCCNC(=N)N)NC(=O)[C@](C)(CCCCN)NC(=O)[C@H](CO)NC(=O)[C@H](Cc1ccccc1)NC(=O)[C@@H](NC(=O)[C@H](CO)NC(=O)[C@H](CCCC)NC(=O)CNC(=O)[C@H](CCC(=O)O)NC(=O)C(C)(C)NC(=O)C(C)(C)NC(=O)[C@@H](NC(=O)[C@H](CCCCNC(C)=O)NC(=O)[C@H](C)NC(=O)[C@H](CCCNC(=N)N)NC(=O)[C@@H](NC(=O)[C@H](CCCCN)NC(=O)[C@H](CCC(=O)O)NC(=O)[C@H](CCCNC(=N)N)NC(=O)CNC(=O)[C@H](CCC(=O)O)NC(=O)[C@H](CC(C)C)NC(C)=O)C(C)C)[C@@H](C)CC)[C@@H](C)O)C(N)=O)C(=O)O)C(=O)O)C(=O)O (Ac-LEGREKVRAK(Ac)I[Aib][Aib]EG[Nle]STFS[αMeK]RAK(Ac)K([AEEA-AEEA-AEEA-AEEA-γGlu-γGlu-γGlu-Palmitoyl])-NH2) | 0.27 | 96 | 20.1 | 89 | 7.3 | 3000 | – | 58

The next lines start with results.

Row | EC50 (Relaxin receptor 1 [2]) [nM] | Emax [4] [%] | EC50 (Relaxin receptor 1 [5]) [nM] | Emax [6] [%] | half-life [8] [h] | SMILES | EC50 at 30 min [1] [nM] | Emax at 0.5 h, 100 µM [3] [%] | Emax at 0.5 h, 33 µM [7] [%]
4 | 1.35 | 90 | 105 | 98 | – | CCCCCCCCCCCCCCCC(=O)N[C@@H](CCC(=O)N[C@@H](CCC(=O)N[C@@H](CCC(=O)NCCCOCCOCCOCCCNC(=O)CCC(=O)NCCCOCCOCCOCCCNC(=O)CCC(=O)NCCCOCCOCCOCCCNC(=O)CCC(=O)NCCCC[C@H](NC(=O)CNC(=O)[C@H](CCC(=O)O)NC(=O)C(C)(C)NC(=O)C(C)(C)NC(=O)[C@@H](NC(=O)[C@H](CCCCNC(C)=O)NC(=O)[C@H](C)NC(=O)[C@H](CCCNC(=N)N)NC(=O)[C@@H](NC(=O)[C@H](CCCCN)NC(=O)[C@H](CCC(=O)O)NC(=O)[C@H](CCCNC(=N)N)NC(=O)CNC(=O)[C@H](CCC(=O)O)NC(=O)[C@H](CC(C)C)NC(C)=O)C(C)C)[C@@H](C)CC)C(=O)N[C@@H](CO)C(=O)N[C@H](C(=O)N[C@@H](Cc1c[nH]c2ccccc12)C(=O)N[C@@H](CO)C(=O)NC(C)(C)C(=O)N[C@@H](CCCNC(=N)N)C(=O)N[C@@H](CCCCN)C(=O)N[C@@H](CCCCNC(C)=O)C(N)=O)[C@@H](C)O)C(=O)O)C(=O)O)C(=O)O (Ac-LEGREKVRAK(Ac)I[Aib][Aib]EGK([Suc-X2])STWS[Aib]RKK(Ac)-NH2) | 5900 | – | 67.5
5 | 25 | – | > 2000 | 90 | – | CCCCCCCCCCCCCCCC(=O)N[C@@H](CCC(=O)N[C@@H](CCC(=O)N[C@@H](CCC(=O)NCCCOCCOCCOCCCNC(=O)CCC(=O)NCCCOCCOCCOCCCNC(=O)CCC(=O)NCCCOCCOCCOCCCNC(=O)CCC(=O)NCCCC[C@H](NC(=O)[C@H](CCC(N)=O)NC(=O)CNC(=O)[C@H](CCC(=O)O)NC(=O)C(C)(C)NC(=O)C(C)(C)NC(=O)[C@@H](NC(=O)[C@H](CCCCNC(C)=O)NC(=O)[C@H](C)NC(=O)[C@H](CCCNC(=N)N)NC(=O)[C@@H](NC(=O)[C@H](CCCCN)NC(=O)[C@H](CCC(=O)O)NC(=O)[C@H](CCCNC(=N)N)NC(=O)CNC(=O)[C@H](CCC(=O)O)NC(=O)[C@H](CC(C)C)NC(C)=O)C(C)C)[C@@H](C)CC)C(=O)N[C@H](C(=O)N[C@@H](Cc1c[nH]c2ccccc12)C(=O)N[C@@H](CO)C(=O)NC(C)(C)C(=O)N[C@@H](CCCNC(=N)N)C(=O)N[C@@H](CCCCN)C(=O)N[C@@H](CCCCNC(C)=O)C(N)=O)[C@@H](C)O)C(=O)O)C(=O)O)C(=O)O (Ac-LEGREKVRAK(Ac)I[Aib][Aib]EGQK([Suc-X2])TWS[Aib]RKK(Ac)-NH2) | 12800 | 32 | –
6 | 0.61 | 90 | 68.6 | 95 | – | CCCCCCCCCCCCCCCC(=O)N[C@@H](CCC(=O)N[C@@H](CCC(=O)N[C@@H](CCC(=O)NCCCOCCOCCOCCCNC(=O)CCC(=O)NCCCOCCOCCOCCCNC(=O)CCC(=O)NCCCOCCOCCOCCCNC(=O)CCC(=O)NCCCC[C@H](NC(=O)[C@H](C)NC(=O)[C@H](CCCNC(=N)N)NC(=O)[C@@H](NC(=O)[C@H](CCCCN)NC(=O)[C@H](CCC(=O)O)NC(=O)[C@H](CCCNC(=N)N)NC(=O)CNC(=O)[C@H](CCC(=O)O)NC(=O)[C@H](CC(C)C)NC(C)=O)C(C)C)C(=O)N[C@H](C(=O)NC(C)(C)C(=O)NC(C)(C)C(=O)N[C@@H](CCC(=O)O)C(=O)NCC(=O)N[C@@H](CCC(N)=O)C(=O)N[C@@H](CO)C(=O)N[C@H](C(=O)N[C@@H](Cc1c[nH]c2ccccc12)C(=O)N[C@@H](CO)C(=O)NC(C)(C)C(=O)N[C@@H](CCCNC(=N)N)C(=O)N[C@@H](CCCCN)C(=O)N[C@@H](CCCCNC(C)=O)C(N)=O)[C@@H](C)O)[C@@H](C)CC)C(=O)O)C(=O)O)C(=O)O (Ac-LEGREKVRAK([Suc-X2])I[Aib][Aib]EGQSTWS[Aib]RKK(Ac)-NH2) | 12500 | 40 | –
